Assay results published in PMC10033419, “Blocking NS3–NS4B interaction inhibits dengue virus in non-human primates” (Nature, 2023).

Test system: DENV-1/45AZ5
Test: NHP DENV-1 study, serum viral RNA RT-qPCR
Type: in vivo, rhesus macaques
Settings: for qRT-PCR Assay Average GE/mL: LOQ 100 GE/reaction
Method: WRAIR is fully accredited by AAALAC International.
Serum samples from macaques were checked for the presence of DENV-1 RNA. Viral RNA for RT–qPCR was extracted from 100–200 µl of serum using the QIAcube instrumentation and the QIAGEN Viral RNA extraction kits. The primers and fluorogenic probes used in the RT–qPCR assays have been previously described[63],[64]. DENV-1 RNA was detected in a 25 µl reaction containing 5 µl of extracted RNA sample, 10 pmol of dengue-specific primers and 5 pmol dengue probe in the reaction mixture from Superscript Ill Platinum One-Step Quantitative RT-PCR Kit (Invitrogen, Thermo Fisher Scientific), consisting of 0.5 µl Superscript III RT/Platinum mix, 12.5 µl 2× reaction mix and 0.05 µl ROX reference dye. The one-step RT–qPCR comprises a 30 min RT step at 50 °C and 2 min of Taq polymerase activation at 94 °C, followed by 40 cycles of PCR at 94 °C for 5 s and 53 °C for 35 s performed in an ABI 7500DX Fast Real Time PCR system. Each assay included positive, negative and non-template controls. The RNA copy number was calculated from a standard curve of tenfold serial dilutions made from RNA in vitro transcripts consisting of DENV-1 with known copy numbers. The LLOQ was 100 genomic copies per reaction.
This sample size was sufficient to detect a significant difference in the number of infected animals in each of the groups as low as 83%. […] Sample processing and conducting of assays was performed by laboratory technicians not involved in the treatment/manipulation of the animals.

With COc1cc(N[C@H](C(=O)c2c[nH]c3ccc(OC(F)(F)F)cc23)c2ccc(Cl)cc2OC)cc(S(C)(=O)=O)c1 [JNJ-1802] the “DENV RNA” value (6 mg per kg per day q.d.) was “remained undetectable during the complete study period”, the “qRT-PCR Assay Result” value (animal R7, Day 0) was “Negative” and the “qRT-PCR Assay Average GE/mL” value (animal R7, Day 0) was 0.00E+00 GE/mL. For the same compound, the “qRT-PCR Assay Result” value (animal R7, Day 1) was “Negative”, the “qRT-PCR Assay Average GE/mL” value (animal R7, Day 1) was 0.00E+00 GE/mL and the “qRT-PCR Assay Result” value (animal R7, Day 2) was “Negative”. The “qRT-PCR Assay Average GE/mL” value (animal R7, Day 2) was 0.00E+00 GE/mL, the “qRT-PCR Assay Result” value (animal R7, Day 3) was “Negative” and the “qRT-PCR Assay Average GE/mL” value (animal R7, Day 3) was 0.00E+00 GE/mL. The “qRT-PCR Assay Result” value (animal R7, Day 4) was “Negative”, the “qRT-PCR Assay Average GE/mL” value (animal R7, Day 4) was 0.00E+00 GE/mL and the “qRT-PCR Assay Result” value (animal R7, Day 5) was “Negative”. For the same compound, the “qRT-PCR Assay Average GE/mL” value (animal R7, Day 5) was 0.00E+00 GE/mL, the “qRT-PCR Assay Result” value (animal R7, Day 6) was “Negative” and the “qRT-PCR Assay Average GE/mL” value (animal R7, Day 6) was 0.00E+00 GE/mL. The “qRT-PCR Assay Result” value (animal R7, Day 7) was “Negative”, the “qRT-PCR Assay Average GE/mL” value (animal R7, Day 7) was 0.00E+00 GE/mL and the “qRT-PCR Assay Result” value (animal R7, Day 8) was “Negative”. The “qRT-PCR Assay Average GE/mL” value (animal R7, Day 8) was 0.00E+00 GE/mL, the “qRT-PCR Assay Result” value (animal R7, Day 9) was “Negative” and the “qRT-PCR Assay Average GE/mL” value (animal R7, Day 9) was 0.00E+00 GE/mL. For the same compound, the “qRT-PCR Assay Result” value (animal R7, Day 10) was “Negative”, the “qRT-PCR Assay Average GE/mL” value (animal R7, Day 10) was 0.00E+00 GE/mL and the “qRT-PCR Assay Result” value (animal R7, Day 11) was “Negative”. For the same compound, the “qRT-PCR Assay Average GE/mL” value (animal R7, Day 11) was 0.00E+00 GE/mL, the “qRT-PCR Assay Result” value (animal R7, Day 14) was “Negative” and the “qRT-PCR Assay Average GE/mL” value (animal R7, Day 14) was 0.00E+00 GE/mL. The “qRT-PCR Assay Result” value (animal R7, Day 29) was “Negative”, the “qRT-PCR Assay Average GE/mL” value (animal R7, Day 29) was 0.00E+00 GE/mL and the “qRT-PCR Assay Result” value (animal R8, Day 0) was “Negative”. For the same compound, the “qRT-PCR Assay Average GE/mL” value (animal R8, Day 0) was 0.00E+00 GE/mL, the “qRT-PCR Assay Result” value (animal R8, Day 1) was “Negative” and the “qRT-PCR Assay Average GE/mL” value (animal R8, Day 1) was 0.00E+00 GE/mL. For the same compound, the “qRT-PCR Assay Result” value (animal R8, Day 2) was “Negative”, the “qRT-PCR Assay Average GE/mL” value (animal R8, Day 2) was 0.00E+00 GE/mL and the “qRT-PCR Assay Result” value (animal R8, Day 3) was “Negative”. The “qRT-PCR Assay Average GE/mL” value (animal R8, Day 3) was 0.00E+00 GE/mL, the “qRT-PCR Assay Result” value (animal R8, Day 4) was “Negative” and the “qRT-PCR Assay Average GE/mL” value (animal R8, Day 4) was 0.00E+00 GE/mL. For the same compound, the “qRT-PCR Assay Result” value (animal R8, Day 5) was “Negative”, the “qRT-PCR Assay Average GE/mL” value (animal R8, Day 5) was 0.00E+00 GE/mL and the “qRT-PCR Assay Result” value (animal R8, Day 6) was “Negative”. The “qRT-PCR Assay Average GE/mL” value (animal R8, Day 6) was 0.00E+00 GE/mL, the “qRT-PCR Assay Result” value (animal R8, Day 7) was “Negative” and the “qRT-PCR Assay Average GE/mL” value (animal R8, Day 7) was 0.00E+00 GE/mL. The “qRT-PCR Assay Result” value (animal R8, Day 8) was “Negative”, the “qRT-PCR Assay Average GE/mL” value (animal R8, Day 8) was 0.00E+00 GE/mL and the “qRT-PCR Assay Result” value (animal R8, Day 9) was “Negative”. The “qRT-PCR Assay Average GE/mL” value (animal R8, Day 9) was 0.00E+00 GE/mL, the “qRT-PCR Assay Result” value (animal R8, Day 10) was “Negative” and the “qRT-PCR Assay Average GE/mL” value (animal R8, Day 10) was 0.00E+00 GE/mL. For the same compound, the “qRT-PCR Assay Result” value (animal R8, Day 11) was “Negative”, the “qRT-PCR Assay Average GE/mL” value (animal R8, Day 11) was 0.00E+00 GE/mL and the “qRT-PCR Assay Result” value (animal R8, Day 14) was “Negative”. The “qRT-PCR Assay Average GE/mL” value (animal R8, Day 14) was 0.00E+00 GE/mL, the “qRT-PCR Assay Result” value (animal R8, Day 29) was “Negative” and the “qRT-PCR Assay Average GE/mL” value (animal R8, Day 29) was 0.00E+00 GE/mL. The “qRT-PCR Assay Result” value (animal R9, Day 0) was “Negative”, the “qRT-PCR Assay Average GE/mL” value (animal R9, Day 0) was 0.00E+00 GE/mL and the “qRT-PCR Assay Result” value (animal R9, Day 1) was “Negative”. For the same compound, the “qRT-PCR Assay Average GE/mL” value (animal R9, Day 1) was 0.00E+00 GE/mL, the “qRT-PCR Assay Result” value (animal R9, Day 2) was “Negative” and the “qRT-PCR Assay Average GE/mL” value (animal R9, Day 2) was 0.00E+00 GE/mL. The “qRT-PCR Assay Result” value (animal R9, Day 3) was “Negative”, the “qRT-PCR Assay Average GE/mL” value (animal R9, Day 3) was 0.00E+00 GE/mL and the “qRT-PCR Assay Result” value (animal R9, Day 4) was “Negative”. The “qRT-PCR Assay Average GE/mL” value (animal R9, Day 4) was 0.00E+00 GE/mL, the “qRT-PCR Assay Result” value (animal R9, Day 5) was “Negative” and the “qRT-PCR Assay Average GE/mL” value (animal R9, Day 5) was 0.00E+00 GE/mL. For the same compound, the “qRT-PCR Assay Result” value (animal R9, Day 6) was “Negative”, the “qRT-PCR Assay Average GE/mL” value (animal R9, Day 6) was 0.00E+00 GE/mL and the “qRT-PCR Assay Result” value (animal R9, Day 7) was “Negative”. For the same compound, the “qRT-PCR Assay Average GE/mL” value (animal R9, Day 7) was 0.00E+00 GE/mL, the “qRT-PCR Assay Result” value (animal R9, Day 8) was “Negative” and the “qRT-PCR Assay Average GE/mL” value (animal R9, Day 8) was 0.00E+00 GE/mL. For the same compound, the “qRT-PCR Assay Result” value (animal R9, Day 9) was “Negative”, the “qRT-PCR Assay Average GE/mL” value (animal R9, Day 9) was 0.00E+00 GE/mL and the “qRT-PCR Assay Result” value (animal R9, Day 10) was “Negative”. The “qRT-PCR Assay Average GE/mL” value (animal R9, Day 10) was 0.00E+00 GE/mL, the “qRT-PCR Assay Result” value (animal R9, Day 11) was “Negative” and the “qRT-PCR Assay Average GE/mL” value (animal R9, Day 11) was 0.00E+00 GE/mL. For the same compound, the “qRT-PCR Assay Result” value (animal R9, Day 14) was “Negative”, the “qRT-PCR Assay Average GE/mL” value (animal R9, Day 14) was 0.00E+00 GE/mL and the “qRT-PCR Assay Result” value (animal R9, Day 29) was “Negative”.
